Data from paper PMC9180621, “Preparation of Novel Pyrazolo[4,3-e]tetrazolo[1,5-b][1,2,4]triazine Sulfonamides and Their Experimental and Computational Biological Studies” (International Journal of Molecular Sciences, 2022).
“And” between values parts separate entries of the source, which are not always exact repeats. Identical values can stand only once.

How the values were obtained:
[1] = system: L929 cells; assay: MTT assay, cell viability; format: cell-based; details: L929 normal mouse fibroblasts, 72 h incubation, ± SD
Procedure: (§1) A statistical program (Graphpad Prism 7) was used to analyze obtained data (MTT test). The dose–response analysis was performed to estimate the inhibitory concentration (IC50) of the tested compounds. The IC50 value is defined as a concentration of the tested compound that leads to a reduction in cell pool viability by 50% compared to the negative control (accepted as 100%). % cell viability=Absorbance value of treated cells−Absorbance value of blank/Absorbance value of untreated cells−Absorbance value of blank×100%
(§2) To estimate cell viability following 72 h incubation with the tested MM-compounds (MM134, MM136, MM137, and MM139), the MTT test was used according to the PN-EN ISO 10993-5. It is a quantitative method based on the tetrazolium yellow dye MTT [3(4,5-dimethyl-2-thiazolyl)-2,5-diphenyl-2H-tetrazolium bromide], which is converted by living cells to a purple product, formazan, the concentration of which was measured colorimetrically. The MTT assay was performed according to the procedure described by Mosmann with modifications. At a density of approximately 8 × 10^3 cells per 100 µL/well, 96-well plates were seeded. Following the given incubation period in controlled conditions (37 °C; 5% CO2), cells were exposed to different concentrations of tested compounds in DMSO (range 0.05–3 µM) in a volume of 100 µL medium per well. Final solvent concentration of DMSO was < 0.5% v/v. The experimental design included vehicle controls and blanks (wells without cells).
(§3) After 72 h of incubation of cells with tested MM-compounds, 20 µL of MTT tetrazolium salt (5 mg/mL in PBS) was added to each well, and plates were incubated once again in a humidified atmosphere for 3 h (37 °C; 5% CO2). Following the incubation time, the solutions were removed and 100 µL of DMSO was added to dissolve the formazan complexes. Subsequently, a spectrophotometer (microplate reader Power Wave XS BioTek Instruments, Inc., Winooski, VT, USA) reading was performed at 570 nm. The experiments were performed in duplicates.

[2] = system: BxPC-3 cells; assay: MTT assay, cell viability; format: cell-based; details: Homo sapiens, BxPC-3, 72 h incubation, ± SD
Procedure: as §1, §2, §3

[3] = system: WI-38 cells; assay: MTT assay, cell viability; format: cell-based; details: WI-38 normal human fibroblasts, 72 h incubation, ± SD
Procedure: as §1, §2, §3

[4] = system: BxPC-3 cells; assay: MitoTracker Red, mitochondria membrane potential; format: cell-based, human
Procedure: (§4) The fitness of the mitochondria and changes in MMP were assessed using MitoTracker Red. Data for experimental groups were presented as mean percentage of control group fluorescence intensity ± SD value (Figure 11, Table 2). Mitotracker Red is deposited in the mitochondrial matrix in response to changes in the inner transmembrane potential of the mitochondria. The intensity of fluorescence reflects the fitness of the mitochondria and alters with changes in MMP [91]. BxPC-3 and PC-3 cells were seeded at appropriate density on a 96-well plates (Table 9). […] After appropriate incubation time, cells were incubated with MitoTracker Red (0.1 µM/200 µL PBS/well) for 40 min. Afterward, MitoTracker Red solution was removed from the wells and PBS (200 µL/well) was added. Fluorescence was read at an […] of 581/644 nm using the SpectraMax® i3x Multi-Mode Detection Platform.

[5] = system: PC-3 cells; assay: MitoTracker Red, mitochondria membrane potential; format: cell-based, human
Procedure: as §4

[6] = system: BxPC-3 cells; assay: Annexin V-FITC/propidium iodide flow cytometry, apoptosis; format: cell-based, human; details: IC50 concentration, Annexin V-FITC, ± SD
Procedure: (§5) Data are presented as mean percentage of apoptotic cells (early and late apoptotic) ± SD values. The differences between the experimental samples and vehicle control were evaluated by the ANOVA test followed by Tukey’s test (p < 0.05). Experiments were performed in triplicate. For flow cytometry analysis with Annexin V-FITC staining, the approximate number of analyzed cells was (N = 1 × 10^4), contrasting with the dual acridine orange/ethidium bromide (AO/EB) fluorescent staining (N = 200).
(§6) The Annexin V-FITC Apoptosis Detection Kit was used to estimate the apoptosis induction following 24 and 48 h incubation with the tested MM-compounds. During apoptosis, phosphatidylserine is transformed from the inner cell membrane to the cell surface, which can be detected by the annexin-FITC complex. The addition of propidium iodide to the reaction mixture allows the assessment of cell membrane integrity. Using flow cytometry analysis, four subpopulations of cells can be distinguished: alive (non-stained), necrotic (propidium iodide stained), early apoptotic (annexin V stained cells), or late-apoptotic cells (propidium iodide and annexin V stained). BxPC-3 and PC-3 cells were seeded at appropriate density on a 6-well plate (Table 9).
(§7) The experimental design included vehicle control (final solvent concentration was < 0.5% v/v DMSO), and cells treated with 2 µM SN-38 (active metabolite of irinotecan) used as a positive compensation control. Cells were left for incubation for another 24 or 48 h (37 °C; 5% CO2). After exposure, cells were trypsinized and transferred to cytometric tubes, left for 40 min, and centrifuged at 1400 rpm for 10 min at 4 °C. Afterward, the supernatant was removed, and the precipitate was diluted in 1 mL of PBS. The rest of the procedure was performed according to the manufacturer’s instructions. The results were obtained from three independent experiments.

[7] = system: PC-3 cells; assay: as above; format: cell-based, human; details: PC-3, 48 h incubation, Annexin V-FITC, ± SD, control 8.37 ± 1.06%
Procedure: as §5, §6, §7

[8] = system: PC-3 cells; assay: MTT assay, cell viability; format: cell-based, human; details: for IC50: Homo sapiens, PC-3, 72 h incubation, MTT, ± SD
Procedure: as §1, §2, §3

[9] = BxPC-3, 24 h incubation, 0.5IC50, ± SD
[10] = BxPC-3, 24 h incubation, 2xIC50, ± SD
[11] = BxPC-3, 24 h incubation, IC50, ± SD
[12] = BxPC-3, 48 h incubation, 0.5IC50, ± SD
[13] = BxPC-3, 48 h incubation, 2xIC50, ± SD
[14] = BxPC-3, 48 h incubation, IC50, ± SD
[15] = PC-3, 24 h incubation, 0.5IC50, ± SD
[16] = PC-3, 24 h incubation, 2xIC50, ± SD
[17] = PC-3, 24 h incubation, IC50, ± SD
[18] = PC-3, 48 h incubation, 0.5IC50, ± SD
[19] = PC-3, 48 h incubation, 2xIC50, ± SD
[20] = PC-3, 48 h incubation, IC50, ± SD
[21] = BxPC-3, 24 h incubation, control 10.3 ± 2.09%
[22] = BxPC-3, 48 h incubation, control 8.3 ± 1.13%

Row | Compound | IC50 [1] [nM] | IC50 [2] [nM] | IC50 [3] [nM] | mean percentage of control group fluorescence intensity (MMP) [4, 9] [%] | mean percentage of control group fluorescence intensity (MMP) [4, 10] [%] | mean percentage of control group fluorescence intensity (MMP) [4, 11] [%] | mean percentage of control group fluorescence intensity (MMP) [4, 12] [%] | mean percentage of control group fluorescence intensity (MMP) [4, 13] [%] | mean percentage of control group fluorescence intensity (MMP) [4, 14] [%] | mean percentage of control group fluorescence intensity (MMP) [5, 15] [%] | mean percentage of control group fluorescence intensity (MMP) [5, 16] | mean percentage of control group fluorescence intensity (MMP) [5, 17] [%] | mean percentage of control group fluorescence intensity (MMP) [5, 18] [%] | mean percentage of control group fluorescence intensity (MMP) [5, 19] [%] | mean percentage of control group fluorescence intensity (MMP) [5, 20] [%] | mean percentage of apoptotic cells (early and late apoptotic) [6, 21] [%] | mean percentage of apoptotic cells (early and late apoptotic) [6, 22] [%] | mean percentage of apoptotic cells (early and late apoptotic) ([7]; 2xIC50 concentration) [%] | IC50 [8] [nM] | other results
1 | Cc1nn(-c2ccc(S(=O)(=O)NCCN3CCOCC3)cc2)c2nn3nnnc3nc12 [MM134] | 580 ± 5 | 320 ± 100 | 650 ± 70 | 88.19 ± 13.62 | 78.31 ± 14.34 | 81.23 ± 11.94 | 79.98 ± 11.47 | 68.95 ± 7.78 | 66.04 ± 16.7 | 100.35 ± 1.57 | 82.34 ± 2.13% | 82.5 ± 2.21 | 82.1 ± 14.45 | 64.56 ± 3.33 | 80.26 ± 13.44 | 65.3 ± 9.1 | 86.9 ± 1.16 | 20.37 ± 2.5 | 160 ± 20 | times higher cytotoxic activity in PC-3 compared to normal human fibroblasts (WI-38) ([8]; ratio of MTT IC50, PC-3 vs WI-38): 4 times
2 | Cc1nn(-c2ccc(S(=O)(=O)N3CCN(C)CC3)cc2)c2nn3nnnc3nc12 [MM137] | 180 ± 0.8 | 160 ± 40 | 270 ± 40 | 89.34 ± 5.91 | 79.22 ± 2.22 | 79.5 ± 3.34 | 84.62 ± 9.01 | 73.8 ± 2.58 | 79.8 ± 6.76 | 96.26 ± 2.83 | 82.5 ± 7.99% | 87.9 ± 2.71 | 78.26 ± 2.62 | 64.19 ± 8.72 | 75.49 ± 5.55 | 18.9 ± 2.95 | 40.8 ± 1.36 | 38.93 ± 4 | 110 ± 7 | mean percentage of apoptotic cells (early and late apoptotic) ([7]; IC50 concentration): 22.57 ± 3.18%
3 | Cc1nn(-c2ccc(S(=O)(=O)N3CCCCC3)cc2)c2nn3nnnc3nc12 [MM139] | 260 ± 20 | 330 ± 140 | 540 ± 60 | 81.28 ± 14.44 | 64.23 ± 6.08 | 66.73 ± 3.72 | 76.9 ± 6.40 | 65.95 ± 12.53 | 60.35 ± 0.91 | 89.2 ± 6.28 | 78.14 ± 6.56% and 78.14 ± 6.55% | 87.28 ± 15.8 | 78.91 ± 15.21 | 61.28 ± 9.16 | 65.93 ± 19.56 | 59.6 ± 7.42 | 85.4 ± 6.25 | 15 ± 2.42 | 170 ± 3 | –
